From PMC10937556, “Phenolic phytochemistry, in vitro, in silico, in vivo, and mechanistic anti-inflammatory and antioxidant evaluations of Habenaria digitata” (Frontiers in Pharmacology, 2024) come the findings set out here.

SMILES strings stand for the structures. Structures can show the parent of a compound that is named as a salt.

The test system of test [1] is prostaglandin E2-induced paw edema. Kind of test: Prostaglandin E2-induced paw edema. As to conditions: 50 mg/kg.
Experimental: (§1) Employing prostaglandin E2, bradykinin, leukotriene, and histamine induced paw edema assays; the potential anti-inflammatory mechanism of the isolated compound was investigated. […] Sub-planter injections of prostaglandin E2 (0.01 mg/mL) or 10 mg/mL leukotriene or bradykinin (20 mg/mL) or 0.1 mL histamine (1 mg/mL) produced paw edema after 1 h. Each mouse’s paw volume was assessed immediately before and after sub-planter injection of various irritants (inflammatory agents) at 1–5 h.
The subject of test [2] is carrageenan-induced paw edema. Kind of test: Carrageenan-induced paw edema. The format is in vivo, mice. As to conditions: dose 5 mg/kg. The protocol:
Mice of both sexes (25–30 g) were used for in vivo anti-inflammatory activity of test samples on the carrageenan-induced inflammation model ([Munir et al., 2020]). Mice were distributed into five groups, with eight animals in each group, divided at random. Group-I served as the negative control and received DMSO at a dose of 10 mL/kg body weight. Group-II served as a positive control, which received aspirin at a dose of 100 mg/kg body weight. […] Each mouse received 1 percent (w/v) saline solution (0.05 mL) of carrageenan in the sub-planter region after a 30-min interval. The paw edema volume was determined using a plethysmometer (LE 7500-plan lab S.L) at 1–5 h intervals after carrageenan was given. […] The percentages of inhibition of inflammation were calculated using the formula given below: % inhibition=EC−ET/EC×100, where “EC” is the average edema of control and “ET” is the edema of the tested group.

Test [3] has as its system histamine-induced paw edema. Kind of test: Histamine-induced paw edema. As to conditions: reference drug, 1 h.
Experimental: as §1
In test [4] the test system is leukotriene-induced paw edema. Description: Leukotriene-induced paw edema. As to conditions: standard drug, 3rd hour.
Experimental: as §1
Test [5] in a line: ABTS free radical scavenging assay. The protocol: The ABTS anti-radicals’ analysis was carried out according to [Shah et al. (2015)]. The ABTS solution was prepared by dissolving ABTS salt (192 mg) in distilled H2O, transferred to a flask (50 mL), and volume was adjusted. Thereafter, 1 mL of the preceding solution was added to 17 µL of K₂S₂O₈ (140 mM) and placed in the dark for 24 h s. The experiment’s ultimate ABTS dilution was achieved by mixing 1 mL of the reaction mixture with 50 mL of methanol. The ABTS solution (190 µL) was mixed with the sample solution (10 µL) and added to 96-well plates, which were then incubated at room temperature in dark for 2 h. Following incubation, the measurement of ABTS color intensity was conducted using a microplate reader at 734 nm. Positive control solutions were prepared at values of 1,000–62.5 µM. The percentage of ABTS scavenging was determined by using the following equation: % ABTS scavenging=Control−Sample/control×100.

A short description of test [6]: DPPH free radical scavenging assay. The protocol:
The DPPH (anti-radicals) investigation was carried out according to our earlier reported protocols. Initially, a methanolic DPPH solution was prepared with a concentration of 0.1%. Subsequently, 100 µL of this solution was mixed with an equal volume of the test samples (100 µL) in 96-well plates, following a 30-min incubation period at 25°C ± 3 °C in the dark. Solutions with concentrations ranging from […] were prepared. Five concentrations of 1,000, 500, 250, 125, and 62.5 µM of the Trolox methanolic solution ([…]) were formed. A color reduction in DPPH was observed after incubation; a microplate reader was used, and absorbance was measured at 540 nm ([Mahnashi et al., 2022a]; [Huneif et al., 2022]). The percentage of scavenging was determined by the formula: Scavenging effect %=control absorbance−sample absorbance/control absorbance×100.
(In general: Loss of DPPH colour is used to gauge radical scavenging.)

Test [7] is described as follows: H2O2 free radical scavenging activity. The protocol: The antioxidant potential of isolated compounds was determined using this approach. In a phosphate buffer solution (50 mM, pH 7.40), a solution of H2O2 (2 mM) was produced. The crude extract (0.10 mL) was measured in a test tube and diluted to 0.40 mL using phosphate buffer. Thereafter, H2O2 (0.60 mL) was added and thoroughly mixed. […] 230 nm was used to measure the absorbance of the sample and the standard ([Sadiq et al., 2018]). For all the crude samples, the exact process was followed. According to the procedure, the inhibition percentage and IC50 values were computed.

In another test the test system is SOD. Description: In vivo antioxidant: SOD activity in brain, heart, liver. Also noted: species or system mice. As to conditions: p < 0.05, D-galactose aging mice.

`Cc1ccc(-c2cc(C(F)(F)F)nn2-c2ccc(S(N)(=O)=O)cc2)cc1` [Celecoxib, reference compound]: the “Effect on increased PGE2 level” value in test [1] is “significant reduction”.
On to `CC(=O)Oc1ccccc1C(=O)O` [Aspirin, reference compound], for which the “Percentage inhibition of paw edema” value is 47.50 ± 1.10 % in test [2] (1 h); 53.61 ± 1.45 % in test [2] (2 h); 54.24 ± 1.34 % in test [2] (3 h); 57.90 ± 1.93 % in test [2] (4 h); 58.62 ± 1.53 % in test [2] (5 h); 58.62% in test [2] (5 h, listed as aspirin).
Regarding `CN(C)CCC(c1ccc(Cl)cc1)c1ccccn1` (stereo not shown) [chlorpheniramine maleate, reference compound], in test [3], the “Percentage inhibition of histamine-induced paw edema” value is 71.62 ± 1.16%.
As to `CC(C)(O)c1ccccc1CC[C@@H](SCC1(CC(=O)O)CC1)c1cccc(/C=C/c2ccc3ccc(Cl)cc3n2)c1` [Montelukast, reference compound], the “Percentage inhibition of leukotriene-induced paw edema” value in test [4] turned out to be 67.02 ± 1.74%.
On to `O=C1O[C@H]([C@@H](O)CO)C(O)=C1O` [AA, ascorbic acid, reference compound], for which, in test [5], the “ABTS IC50” value amounted to 0.12 µg/mL. The ABTS % inhibition in test [5] (62.5 µg/mL) was 81.12 ± 0.34%; in test [5] (125 µg/mL), 84.47 ± 0.49%; in test [5] (250 µg/mL), 87.75 ± 0.14%; in test [5] (500 µg/mL), 91.59 ± 0.30%; in test [5] (1,000 µg/mL), 95.85 ± 0.18%. The “DPPH IC50” value in test [6] came to 0.47 µg/mL. Further, the DPPH % inhibition is reported as 81.35 ± 0.18% in test [6] (62.5 µg/mL); 84.20 ± 0.15% in test [6] (125 µg/mL); 88.42 ± 0.11% in test [6] (250 µg/mL); 93.62 ± 0.17% in test [6] (500 µg/mL); 97.53 ± 0.20% in test [6] (1,000 µg/mL). Also, the “H2O2 IC50” value in test [7] stood at 02 µg/mL. Also, the H2O2 % inhibition in test [7] (62.5 µg/mL) came out at 71.73 ± 0.66%; in test [7] (125 µg/mL), 73.70 ± 0.35%; in test [7] (250 µg/mL), 78.07 ± 0.62%; in test [7] (500 µg/mL), 83.01 ± 0.42%; in test [7] (1,000 µg/mL), 87.50 ± 2.26%.
On to `Cc1c(C)c2c(c(C)c1O)CCC(C)(C(=O)O)O2` (stereo not shown) [Trolox, reference compound], for which the “SOD activity compared to the model group” value in the test with SOD is “higher”.
